In patent US20250262279A1, “DOSE REGIMEN FOR LONG-ACTING GLP1/GLUCAGON RECEPTOR AGONISTS” (Boehringer Ingelheim International GmbH, priority 2021, published 2025):
Like-named read-outs stand apart in the source and are kept apart here.

Tests used:
[1] = Example 3: safety (AEs, laboratory, ECG, vital signs, NASH scores); format: in vivo, human
Experimental: • Semaglutide • Dose: 0.25, 0.25, 0.25, 0.25, 0.5, 0.5, 0.5, 0.5, 1.0 mg (weeks 9−16) once weekly • Mode of administration: Solution for injection
Safety endpoints included Columbia-Suicide Severity Rating Scale (C-SSRS) and various electrocardiograms (ECG) assessments. Safety was assessed based on adverse events (AEs), adverse event of special interest (AESIs), clinical laboratory assessments, vital signs, and physical examination. AESIs were pre-specified in the protocol as pancreatitis and hepatic injury.
Analyses of safety were descriptive.

[2] = Example 1: plasma pharmacokinetics; format: in vivo; conditions: human, sc; for Cmax: read-out: Cmax (gMean)

Q: What does the source list for `CC[C@H](C)[C@H](NC(=O)[C@H](Cc1ccccc1)NC(=O)[C@H](CC(=O)O)NC(=O)[C@H](CCCCN)NC(=O)[C@H](C)NC(=O)[C@H](C)NC(=O)[C@H](CCCNC(=N)N)NC(=O)[C@H](CCC(=O)O)NC(=O)[C@H](CC(=O)O)NC(=O)[C@H](CC(C)C)NC(=O)[C@H](Cc1ccc(O)cc1)NC(=O)[C@H](CCCCN)NC(=O)[C@H](CO)NC(=O)[C@H](Cc1ccc(O)cc1)NC(=O)[C@H](CC(=O)O)NC(=O)[C@H](CO)NC(=O)[C@@H](NC(=O)[C@H](Cc1ccccc1)NC(=O)[C@@H](NC(=O)CNC(=O)[C@H](CCC(N)=O)NC(=O)C1(NC(=O)[C@@H](N)Cc2c[nH]cn2)CCC1)[C@@H](C)O)[C@@H](C)O)C(=O)N[C@@H](CCCCNC(=O)CNC(=O)CNC(=O)[C@H](CO)NC(=O)CNC(=O)[C@H](CO)NC(=O)CNC(=O)CC[C@H](NC(=O)CCCCCCCCCCCCCCCCC(=O)O)C(=O)O)C(=O)N[C@@H](Cc1c[nH]c2ccccc12)C(=O)N[C@@H](CC(C)C)C(=O)N[C@@H](CCC(=O)O)C(=O)N[C@@H](CO)C(=O)N[C@@H](C)C(N)=O` [Compound I]?
A: deaths ([1]; Ex.3, whole trial): no deaths; AEs of special interest, percentage of patients ([1]; in vivo): (0.3) interest %; cases of pancreatitis ([1]; in vivo): no cases of pancreatitis; AUC(0-t) ([2]; 0.3 mg, Ex.1 twice weekly scheme, wk 1, 0.3 mg sc, read-out: AUC0-72 (gMean)): 0.342 µM·h; Cmax ([2]; 0.3 mg, Ex.1 twice weekly scheme, wk 1, 0.3 mg sc): 5.38 nM; AUC(0-t) ([2]; 0.3 mg, Ex.1 weekly scheme 1, wk 1, 0.3 mg sc, read-out: AUC0-168 (gMean)): 0.617 µM·h; Cmax ([2]; 0.3 mg, Ex.1 weekly scheme 1, wk 1, 0.3 mg sc): 5.08 nM; AUC(0-t) ([2]; 0.4 mg, Ex.1 weekly scheme 2, wk 1, 0.4 mg sc, read-out: AUC0-168 (gMean)): 0.818 µM·h; Cmax ([2]; 0.4 mg, Ex.1 weekly scheme 2, wk 1, 0.4 mg sc): 6.51 nM; AUC(0-t) ([2]; 0.6 mg, Ex.1 twice weekly scheme, wk 3, 0.6 mg sc, read-out: AUC0-72 (gMean)): 1.2 µM·h; Cmax ([2]; 0.6 mg, Ex.1 twice weekly scheme, wk 3, 0.6 mg sc): 20.4 nM; AUC(0-t) ([2]; 0.6 mg, Ex.1 weekly scheme 1, wk 2, 0.6 mg sc, read-out: AUC0-168 (gMean)): 1.41 µM·h; Cmax ([2]; 0.6 mg, Ex.1 weekly scheme 1, wk 2, 0.6 mg sc): 12.3 nM; AUC(0-t) ([2]; 0.6 mg, Ex.1 weekly scheme 3, wk 1, 0.6 mg sc, read-out: AUC0-168 (gMean)): 1.24 µM·h; Cmax ([2]; 0.6 mg, Ex.1 weekly scheme 3, wk 1, 0.6 mg sc): 10.7 nM; AUC(0-t) ([2]; 0.6 mg, Ex.1 weekly scheme 3, wk 2, 0.6 mg sc, read-out: AUC0-168 (gMean)): 1.71 µM·h; Cmax ([2]; 0.6 mg, Ex.1 weekly scheme 3, wk 2, 0.6 mg sc): 14.4 nM; AUC(0-t) ([2]; 0.6 mg, Ex.1 weekly scheme 4, wk 1, 0.6 mg sc, read-out: AUC0-168 (gMean)): 1.57 µM·h; Cmax ([2]; 0.6 mg, Ex.1 weekly scheme 4, wk 1, 0.6 mg sc): 15.7 nM; AUC(0-t) ([2]; 0.6 mg, Ex.1 weekly scheme 4, wk 3, 0.6 mg sc, read-out: AUC0-168 (gMean)): 2.49 µM·h; Cmax ([2]; 0.6 mg, Ex.1 weekly scheme 4, wk 3, 0.6 mg sc): 22.3 nM; AUC(0-t) ([2]; 0.6 mg, Ex.1 weekly scheme 5, wk 1, 0.6 mg sc, read-out: AUC0-168 (gMean)): 1.44 µM·h; Cmax ([2]; 0.6 mg, Ex.1 weekly scheme 5, wk 1, 0.6 mg sc): 13.2 nM; AUC(0-t) ([2]; 0.8 mg, Ex.1 weekly scheme 2, wk 2, 0.8 mg sc, read-out: AUC0-168 (gMean)): 2.04 µM·h; Cmax ([2]; 0.8 mg, Ex.1 weekly scheme 2, wk 2, 0.8 mg sc): 16.9 nM; AUC(0-t) ([2]; 0.9 mg, Ex.1 twice weekly scheme, wk 5, 0.9 mg sc, read-out: AUC0-72 (gMean)): 2.39 µM·h; Cmax ([2]; 0.9 mg, Ex.1 twice weekly scheme, wk 5, 0.9 mg sc): 40.8 nM; AUC(0-t) ([2]; 0.9 mg, Ex.1 twice weekly scheme, wk 6, 0.9 mg sc, read-out: AUC0-72 (gMean)): 2.78 µM·h; Cmax ([2]; 0.9 mg, Ex.1 twice weekly scheme, wk 6, 0.9 mg sc): 49.2 nM; AUC(0-t) ([2]; 0.9 mg, Ex.1 weekly scheme 1, wk 3, 0.9 mg sc, read-out: AUC0-168 (gMean)): 2.48 µM·h; Cmax ([2]; 0.9 mg, Ex.1 weekly scheme 1, wk 3, 0.9 mg sc): 20.6 nM; AUC(0-t) ([2]; 1.2 mg, Ex.1 twice weekly scheme, wk 7, 1.2 mg sc, read-out: AUC0-72 (gMean)): 3.56 µM·h; Cmax ([2]; 1.2 mg, Ex.1 twice weekly scheme, wk 7, 1.2 mg sc): 58.8 nM; AUC(0-t) ([2]; 1.2 mg, Ex.1 weekly scheme 1, wk 4, 1.2 mg sc, read-out: AUC0-168 (gMean)): 3.36 µM·h; Cmax ([2]; 1.2 mg, Ex.1 weekly scheme 1, wk 4, 1.2 mg sc): 28.1 nM; AUC(0-t) ([2]; 1.2 mg, Ex.1 weekly scheme 2, wk 3, 1.2 mg sc, read-out: AUC0-168 (gMean)): 3.56 µM·h; Cmax ([2]; 1.2 mg, Ex.1 weekly scheme 2, wk 3, 1.2 mg sc): 31.7 nM; AUC(0-t) ([2]; 1.2 mg, Ex.1 weekly scheme 3, wk 3, 1.2 mg sc, read-out: AUC0-168 (gMean)): 3.23 µM·h; Cmax ([2]; 1.2 mg, Ex.1 weekly scheme 3, wk 3, 1.2 mg sc): 28.1 nM; AUC(0-t) ([2]; 1.2 mg, Ex.1 weekly scheme 4, wk 5, 1.2 mg sc, read-out: AUC0-168 (gMean)): 3.94 µM·h; Cmax ([2]; 1.2 mg, Ex.1 weekly scheme 4, wk 5, 1.2 mg sc): 36 nM; AUC(0-t) ([2]; 1.2 mg, Ex.1 weekly scheme 4, wk 6, 1.2 mg sc, read-out: AUC0-168 (gMean)): 4.7 µM·h; Cmax ([2]; 1.2 mg, Ex.1 weekly scheme 4, wk 6, 1.2 mg sc): 41.9 nM; AUC(0-t) ([2]; 1.2 mg, Ex.1 weekly scheme 4, wk 7, 1.2 mg sc, read-out: AUC0-168 (gMean)): 5.19 µM·h; Cmax ([2]; 1.2 mg, Ex.1 weekly scheme 4, wk 7, 1.2 mg sc): 49 nM; AUC(0-t) ([2]; 1.2 mg, Ex.1 weekly scheme 5, wk 3, 1.2 mg sc, read-out: AUC0-168 (gMean)): 3.79 µM·h; Cmax ([2]; 1.2 mg, Ex.1 weekly scheme 5, wk 3, 1.2 mg sc): 31.5 nM; AUC(0-t) ([2]; 1.5 mg, Ex.1 twice weekly scheme, wk 9, 1.5 mg sc, read-out: AUC0-72 (gMean)): 5 µM·h; Cmax ([2]; 1.5 mg, Ex.1 twice weekly scheme, wk 9, 1.5 mg sc): 78.3 nM; AUC(0-t) ([2]; 1.5 mg, Ex.1 weekly scheme 1, wk 5, 1.5 mg sc, read-out: AUC0-168 (gMean)): 4.49 µM·h; Cmax ([2]; 1.5 mg, Ex.1 weekly scheme 1, wk 5, 1.5 mg sc): 37.8 nM; AUC(0-t) ([2]; 1.6 mg, Ex.1 weekly scheme 2, wk 4, 1.6 mg sc, read-out: AUC0-168 (gMean)): 5.13 µM·h; Cmax ([2]; 1.6 mg, Ex.1 weekly scheme 2, wk 4, 1.6 mg sc): 44.3 nM; AUC(0-t) ([2]; 1.8 mg, Ex.1 twice weekly scheme, wk 11, 1.8 mg sc, read-out: AUC0-72 (gMean)): 5.69 µM·h; Cmax ([2]; 1.8 mg, Ex.1 twice weekly scheme, wk 11, 1.8 mg sc): 93.6 nM; AUC(0-t) ([2]; 1.8 mg, Ex.1 weekly scheme 1, wk 6, 1.8 mg sc, read-out: AUC0-168 (gMean)): 5.53 µM·h; Cmax ([2]; 1.8 mg, Ex.1 weekly scheme 1, wk 6, 1.8 mg sc): 45.5 nM; AUC(0-t) ([2]; 1.8 mg, Ex.1 weekly scheme 3, wk 4, 1.8 mg sc, read-out: AUC0-168 (gMean)): 5.2 µM·h; Cmax ([2]; 1.8 mg, Ex.1 weekly scheme 3, wk 4, 1.8 mg sc): 46.5 nM; AUC(0-t) ([2]; 1.8 mg, Ex.1 weekly scheme 4, wk 11, 1.8 mg sc, read-out: AUC0-168 (gMean)): 8.16 µM·h
